Experimental data as given in patent US11207331B2, “Agents, compositions and methods for enhancing neurological function” (University of Southern California, priority 2007, dated 2021).

test system: hippocampal neural cells; experiment: 3H-thymidine uptake in cultured hippocampal neural cells; type: cell-based, rat; settings: 24 hours, 37° C.
Method: Biochemical analyses of 3H-thymidine uptake, as a measure of DNA synthesis, were used as the experimental vehicle to confirm the morphological observations described in examples 1 and 2. […] Thus, the range for the neurogenic effect of THP on neural cells is quite is sensitive and quite broad.
For these experiments, cultured hippocampal neural cells, derived from embryonic day 18 rat fetuses, were allowed to adhere to polylysine coated plastic cover-slips for 40 min in serum containing medium. Following adhesion, neurons were exposed to […] 3H-thymidine in the presence or absence of 100-500 nM THP and allowed to incubate at 37° C. for 24 hours in the absence or presence of the indicated steroids. Data are expressed as mean+SEM, *p<. 05,**p<0.01, ***p<0.001.
The time course of THP-induced 3H-thymidine incorporation in hippocampal neuronal cells is shown in FIG. 9 where cultured hippocampal nerve cells, derived from embryonic day 18 rat fetuses, were allowed to adhere to polylysine coated plastic cover-slips for 40 min in serum containing medium. Following adhesion, serum containing medium in the presence or absence of 10-250 nM THP plus […] 3H-thymidine and allowed to incubate at 37 for 1, 8 or 24 hours. Data are expressed as mean±SEM, *p<0.05,**p<0.01,***p<0.001.

| Compound | effect on 3H-thymidine incorporation (steroid specificity) |
| --- | --- |
| 5α,3α-pregnan-triol | significant decrease |
| CC(=O)[C@H]1CC[C@H]2[C@@H]3CCC4=CC(=O)CC[C@]4(C)[C@H]3CC[C@]12C [Progesterone] | modest increase |
| CC(=O)[C@H]1CC[C@H]2[C@@H]3CC[C@@H]4C[C@@H](O)CC[C@]4(C)[C@H]3CC[C@]12C [5ss, 3ss-THP] | no effect |
| 5α, 3P-pregnen-3-one | no effect |
| pregnenolone sulfate | significant decrease |
| 5α,3α-pregnan-diol | significant decrease |
| CC(=O)[C@H]1CC[C@H]2[C@@H]3CC[C@H]4C[C@@H](O)CC[C@]4(C)[C@H]3CC[C@]12C [5cc, 3ss-THP] | no effect |
